According to patent US9174991B2, “Crystalline form of pemetrexed disodium” (Azad Pharmaceutical Ingredients AG, priority 2009, dated 2015):
Structures can show the parent of a compound that is named as a salt. Where two headings read alike, the source gives them in different places.

What was measured:
[1] = starting material, before storage
Experimental: HPLC analysis was done on an Agilent 1100 system equipped with DAD detector using a Zorbax SB-Phenyl column (150×4.6 mm, 3 μm). Measurements were done at 230 nm wavelengths at 25° C. using a flow of 1.0 mL/min and 8 min post-run time. As mobile phase water containing 0.03% TFA and acetonitrile containing 0.025% TFA were used, solvents were HPLC grade. Sample preparation: 10 mg sample in 25 mL water:ACN=1:1, 5 uL injection. Retention time Pemetrexed Disodium: 10.3 min.
PXRD: Routine PXRD measurements were carried out on a Bruker AXS D8Advance diffractometer equipped with CuKα source with CuKβ filter and a VANTEC detector (Ser. No.: 202964). Measurement parameters: 3° 2theta to 39.9° 2theta, step time: 2s, step size: 0.022°, T=25° C., X-ray generator: 35 kV/40 mA.

[2] = 70° C., 5 mbar; for change in HPLC-purity upon vacuum drying (in words): up to 9 d
Experimental: (§1) To investigate the stability of the different forms of Pemetrexed Disodium a stability test concerning storage at different relative humidity, storage in the presence of light and stability under drying conditions was carried out.
Four samples were stored at 70° 5 mbar in laboratory vacuum oven. IPC were taken after 2 d, 9 d
(§2) HPLC analysis was done on an Agilent 1100 system equipped with DAD detector using a Zorbax SB-Phenyl column (150×4.6 mm, 3 μm). Measurements were done at 230 nm wavelengths at 25° C. using a flow of 1.0 mL/min and 8 min post-run time. […] Sample preparation: 10 mg sample in 25 mL water:ACN=1:1, 5 uL injection.

[3] = for H2O (KFT) / HPLC-purity (10.5 min) / PXRD / HPLC-purity: dark, air; for change in HPLC purity in any of the samples (in words): all relative humidities tested (5% to 70%)
[4] = for change in HPLC purity in the presence of light (in words) / change in color in the presence of light (in words): text says after 16 d
Experimental: as §1
The samples were stored in double PE plastic bags and exposed to daylight IT=20° C. to 25° C. IPCs were taken after 15 d.
as §2

[5] = Barnett et al., Organic Process Research & Development, 1999, 3, 184-188; cited from earlier work
[6] = 5% to 12% relative humidity, 2 d, measured 11.7% (Form A 5.8%), 23° C.
[7] = 5% to 12% relative humidity, 5 d, measured 9.5% (Form A 5.3%), 24° C.
[8] = 5% to 12% relative humidity, 9 d, measured 9% (Form A 6%), 24° C.
[9] = 5% to 12% relative humidity, 16 d, measured 8.5% (Form A 5.8%), 24° C.
[10] = 27% to 33% relative humidity, 2 d, measured 29.8% (Form A 28%), 23° C.
[11] = 27% to 33% relative humidity, 5 d, measured 29% (Form A 27%), 24° C.
[12] = 27% to 33% relative humidity, 9 d, measured 31% (Form A 30%), 24° C.
[13] = 27% to 33% relative humidity, 16 d, measured 30.4% (Form A 28.7%), 24° C.
[14] = 39% to 50% relative humidity, 2 d, measured 41.1% (Form A 39%), 23° C.
[15] = 39% to 50% relative humidity, 5 d, measured 42.8% (Form A 38.6%), 24° C.
[16] = 39% to 50% relative humidity, 9 d, measured 48% (Form A 47%), 24° C.
[17] = 39% to 50% relative humidity, 16 d, measured 47.3% (Form A 46.4%), 24° C.
[18] = 60% to 70% relative humidity, 2 d, measured 61%, 22° C. (Form A 54%, 23° C)
[19] = 60% to 70% relative humidity, 5 d, measured 63% (Form A 57%), 24° C.
[20] = 60% to 70% relative humidity, 9 d, measured 69% (Form A 68%), 24° C.
[21] = 60% to 70% relative humidity, 16 d, measured 66.9% (Form A 67.2%), 24° C.
[22] = daylight, listed as Pemetrexed Disodium Form IV
[23] = double PE plastic bags, daylight, 20° C. to 25° C., 15 d
[24] = 2 d, listed as Pemetrexed Disodium Heptahydrate

Compound: Nc1nc(O)c2c(CCc3ccc(C(=O)N[C@@H](CCC(=O)O)C(=O)O)cc3)c[nH]c2n1 [Form IV, disodium N-[4-[2-(2-amino-4,7-dihydro-4-oxo-3H-pyrrolo[2,3-d]-pyrimidin-5-yl)ethyl]benzoyl]-L-glutamic acid salt]
- HPLC-purity (10.5 min) [1]: 99.85%
- PXRD [1]: Form IV
- HPLC-purity (10.5 min) ([2]; 2 d): 99.70%
- PXRD ([2]; 2 d): Form IV
- HPLC-purity (10.5 min) ([2]; 9 d): 99.80%
- change in water content upon vacuum drying (in words) ([2]; after 9 d): no significant change
- change in HPLC-purity upon vacuum drying (in words) ([2]; listed as Pemetrexed Disodium Form IV): no significant change
- change in water content (in words) ([3]; 5% to 12% rel. humidity (for Form A and Form IV: 7% to 12%), up to 16 d, listed as Pemetrexed Disodium Form IV): does not show significant change
- H2O (KFT) [3, 6]: 1.0%
- HPLC-purity (10.5 min) [3, 6]: 99.66%
- PXRD [3, 6]: Form IV
- HPLC-purity (10.5 min) [3, 7]: 99.60%
- PXRD [3, 7]: Form IV
- HPLC-purity (10.5 min) [3, 8]: 99.83%
- PXRD [3, 8]: Form IV
- HPLC-purity [3, 9]: 99.88%
- PXRD [3, 9]: Form IV
- change in water content (in words) ([3]; 27% to 33% rel. humidity, up to 16 d, listed as Pemetrexed Disodium Form IV): does not show significant change
- HPLC-purity [3, 10]: 99.81%
- PXRD [3, 10]: Form IV
- HPLC-purity [3, 11]: 99.73%
- PXRD [3, 11]: Form IV
- HPLC-purity [3, 12]: 99.82%
- PXRD [3, 12]: Form IV
- HPLC-purity [3, 13]: 99.86%
- PXRD [3, 13]: Form D
- HPLC-purity [3, 14]: 99.84%
- PXRD [3, 14]: Form IV
- HPLC-purity [3, 15]: 99.78%
- PXRD [3, 15]: Form IV
- HPLC-purity [3, 16]: 99.76%
- PXRD [3, 16]: Form IV
- PXRD ([3]; 39% to 50% relative humidity, 9 d, measured 48% (Form A 47%), 24° C., listed as Pemetrexed Disodium Form IV): without significant change
- HPLC-purity [3, 17]: 99.81%
- PXRD ([3]; 39% to 50% relative humidity, 16 d, measured 47.3% (Form A 46.4%), 24° C., listed as Pemetrexed Disodium Form IV): traces of Pemetrexed Disodium Heptahydrate
- change in water content (in words) ([3]; 40% to 50% rel. humidity, up to 16 d, listed as Pemetrexed Disodium Form IV): slight increase
- change in water content (in words) ([3]; 60% to 70% rel. humidity, after 2 d): significant increase
- HPLC-purity [3, 18]: 99.83%
- PXRD ([3]; 60% to 70% relative humidity, 2 d, measured 61%, 22° C. (Form A 54%, 23° C), listed as Pemetrexed Disodium Form IV): partial transformation to Pemetrexed Disodium Heptahydrate
- HPLC-purity [3, 19]: 99.75%
- PXRD [3, 19]: Heptahydrate
- PXRD ([3]; 60% to 70% relative humidity, 5 d, measured 63% (Form A 57%), 24° C., listed as Pemetrexed Disodium Form IV): Transformation to Pemetrexed Disodium Heptahydrate is complete
- HPLC-purity [3, 20]: 99.85%
- PXRD [3, 20]: Heptahydrate
- HPLC-purity [3, 21]: 99.81%
- PXRD [3, 21]: Heptahydrate
- change in HPLC purity in any of the samples (in words) ([3]; up to 16 d): No significant change
- HPLC-purity ([4]; daylight study, Start): 99.83%
- change in HPLC purity in the presence of light (in words) [4, 22]: slight decrease
- change in color in the presence of light (in words) [4, 22]: without significant change
- HPLC-purity [4, 23]: 99.44%

Compound: Nc1nc(O)c2c(CCc3ccc(C(=O)N[C@@H](CCC(=O)O)C(=O)O)cc3)c[nH]c2n1 [Heptahydrate, disodium N-[4-[2-(2-amino-4,7-dihydro-4-oxo-3H-pyrrolo[2,3-d]-pyrimidin-5-yl)ethyl]benzoyl]-L-glutamic acid salt]
- HPLC-purity (10.5 min) [1]: 99.90%
- HPLC-purity (10.5 min) ([2]; 2 d): 99.86%
- PXRD ([2]; 2 d): 2.5 hydrate
- H2O (KFT) [2, 24]: 8.4%
- PXRD [2, 24]: only 2.5 hydrate
- HPLC-purity (10.5 min) ([2]; 9 d): 99.80%
- change in HPLC-purity upon vacuum drying (in words) ([2]; listed as Pemetrexed Disodium Heptahydrate): No significant change
- H2O (KFT) [3, 6]: 19.7%
- HPLC-purity (10.5 min) [3, 6]: 99.70%
- HPLC-purity (10.5 min) [3, 7]: 99.73%
- HPLC-purity (10.5 min) [3, 8]: 99.86%
- HPLC-purity [3, 9]: 99.88%
- PXRD ([3]; 5% to 12% relative humidity, 16 d, measured 8.5% (Form A 5.8%), 24° C., listed as Pemetrexed Disodium Heptahydrate): almost complete transformation to Pemetrexed Disodium 2.5 hydrate
- HPLC-purity [3, 10]: 99.74%
- HPLC-purity [3, 11]: 99.62%
- HPLC-purity [3, 12]: 99.84%
- HPLC-purity [3, 13]: 99.91%
- PXRD [3, 13]: Heptahydrate
- HPLC-purity [3, 14]: 99.84%
- HPLC-purity [3, 15]: 99.78%
- PXRD [3, 15]: Heptahydrate
- HPLC-purity [3, 16]: 99.81%
- PXRD [3, 16]: Heptahydrate
- HPLC-purity [3, 17]: 99.91%
- PXRD [3, 17]: Heptahydrate
- HPLC-purity [3, 18]: 99.63%
- HPLC-purity [3, 19]: 99.81%
- PXRD [3, 19]: Heptahydrate
- HPLC-purity [3, 20]: 99.81%
- PXRD [3, 20]: Heptahydrate
- HPLC-purity [3, 21]: 99.90%
- PXRD [3, 21]: Heptahydrate
- change in HPLC purity in any of the samples (in words) ([3]; up to 16 d): No significant change
- HPLC-purity ([4]; daylight study, Start): 99.63%
- change in HPLC purity in the presence of light (in words) ([4]; daylight): do not show significant changes
- change in color in the presence of light (in words) ([4]; daylight): do not show significant changes
- HPLC-purity [4, 23]: 99.65%

Compound: Nc1nc(O)c2c(CCc3ccc(C(=O)N[C@@H](CCC(=O)O)C(=O)O)cc3)c[nH]c2n1 [disodium salt II, disodium N-[4-[2-(2-amino-4,7-dihydro-4-oxo-3H-pyrrolo[2,3-d]-pyrimidin-5-yl)ethyl]benzoyl]-L-glutamic acid salt]
- hygroscopicity (in words) [5]: hygroscopic solid
